Tests used:
[1] = system: phosphoenopyruvate carboxykinse (PEPCK) mRNA expression; assay: PEPCK mRNA expression induced by dexamethasone and 8-bromo-cAMP in H4IIE cells; assay type: cell-based, rat; details: dexamethasone (500 nM) + 8-bromo-cAMP, test compounds as printed
Method: S21 Effects of scoparone, 50 (PLH), and 6 on phosphoenopyruvate carboxykinse (PEPCK) mRNA expression induced by dexamethasone and 8-bromo-cAMP.
A quantified result of dexamethasone (500 nM) and 8-bromo-cAMP (100µM) induced PEPCK mRNA expression in the presence or absence of scoparone, 50 (PLH) and 6 at 0.78 µM was shown. Insulin (10 nM) was served as an experimental control. Quantified data was presented as mean ± S.E.M. (n = 4). **P < 0.01 and ***P < 0.001 when compared with induction control (None).
PEPCK mRNA could be induced by dexamethasone and 8-bromo-cAMP after 3hr. The presence of insulin […]
Scoparone, at 0.78 µM, can suppress PEPCK
In contrast, both 50 (PLH) and 6 could also suppress PEPCK
Cell culture: The rat H4IIE cells were cultured in Dulbecco’s Modified Eagle’sMedium (DMEM) containing 1 g/L glucose, 5% (v/v) fetal calf serum (FBS) and 1% (v/v) antibiotics (100 U/mL penicillin and 0.1 g/L streptomycin). Cultured cells were maintained at 37 ◦C in an atmosphere of 5% CO2 and 95% air.
The measurement of PEPCK gene expression: H4IIE cells were seeded into 6 cm dish and allowed for the attachment. After serum starvation overnight, cells were treated with various conditions described in the figure legend. After treatment, total RNA of each treatment was extracted using TRI-reagent according to the manufacturer’s instructions. The pelleted RNA was dissolved in distilled water, quantified with NanoDrop™ 1000 Spectrophotometer (Thermo Fisher Scientific, USA) and stored at −70 ◦C. Total RNA (1µg) was reverse transcribed to generate templates. 50 ng of cDNA was employed for further PCR. The sequences of […]
primers for β-actin: 5’-[…]- 3’ and 5’-[…]-3’ and […]
(1 picture or pasted object on this page, not shown here)

[2] = system: UGT1A1; assay: Protein expression of UGT1A1 (western blot); assay type: cell-based, human
Method: (§1) 1 × 10^6 cells were seeded in a 10 cm plate, incubated at 37 °C for overnight and treated with various concentrations of compounds for the indicated times. After incubation, the culture medium was removed and washed twice with 2 mL ice-cold 1× PBS. Three hundred μL of protein lysis buffer (150 mM NaCl, 50 mM Tris-HCl (pH 7.4), 1% SDS, 1% Triton X-100, 1 mM PMSF) was added into each plate, scraped with a rubber policeman, collected into a premarked microtube and the incubated in ice for 1 h, sonicated by Ultrasonic Cell Disruptor for three time at 5 s each. The cell lysated was cleared by centrifugation at 12,000× g for 15 min at 4 °C. Supernatants were transferred into a fresh marked microtube and stored at −20 °C for future use.
(§2) Protein concentration of each sample was determined using a BCA Protein Assay Kit (Pirece®, Thermo Scientific). Different percentages of SDS-PAGE gels were prepared according to the molecular size of proteins of interest. After complete polymerization of stacking gels, each sample with equal amount of total protein was separated in polyacrylamide gels (stacking gel: 50 v, 60 min; separating gel: 100 v, 60 min). After separating, wet-transfer method was utilized to transfer proteins onto the PVDF membrane. The gels were assembled in the transfer sandwich and put in a transfer tank filled with transfer buffer (25 mM glycine, 0.15% ethanolamine, 20% methanol). The electro-transfer was performed at the voltage of 100 volt for 80 min at 4 °C. After transfer, PVDF-membrane was blocked with 5% BSA in 1× TBS-Tween at room temperature for 1 h. Membrane was washed with 10 mL 1× TBS-Tween three times and incubated with primary antibodies overnight at 4 °C with gentle agitation. After primary antibody was removed, the membrane was washed three times with 10 mL 1× TBS-Tween for 10 min at room temperature with constant shaking. […] The emitted fluorescence from the membrane was caught on a LAS-4000 biomolecule imager (FUJI.).

[3] = system: MRP2; assay: Protein expression of MRP2 (western blot); assay type: cell-based, human
Method: Figure 7 The protein expressions of MRP2 after 6,7-diprenoxycoumarin (50) treatment. Hep3B cell (1 × 10^6) were treated with 50 (5, 10, 20 and 40 μM) for 24 h. Treated cell lysates were prepared as described in the Methods section and the expression of MRP2 was analyzed by western blot.
as §1
as §2, with “agitation.” for “agitation. After primary antibody was removed, the membrane was washed three times with 10 mL 1× TBS-Tween for 10 min at room temperature with constant shaking.”

[4] = system: UGT1A1; assay: mRNA expression of UGT1A1 in Hep3B (RT-PCR); assay type: cell-based, human; details: 10 μM, 2, 4, 6, 8 and 10 h
Method: (§3) Figure 6 The time course study of mRNA expression of MRP2 and UGT1A1 after 10 μM 6,7-diprenoxycoumarin treatment. Hep3B cells were treated with 10 μM 50 for 2, 4, 6, 8 and 10 h. The total mRNA was obtained and the expression of downstream genes were analyzed with PCR. The ratio of MRP2 to GAPDH was calculated using Image J and normalization.
(§4) Total RNA was isolated from control and treated cells using a TRIzol reagent (Invitrogen) according to the manufacturer’s instruction. The RNA concentration was measured by a spectrophotometer and equal amounts of total RNA (2 μg) were reverse—transcribed using a RevertAid First Strand cDNA Synthesis Kit (K1622, Fermentas, Hanover, MD, USA). Amplification of cDNA was performed in the PCR reaction buffer (0.2 mM dNTP, 1.5 mM MgCl2, and 0.5 μM of each primer) containing 2.5 units of Taq DNA polymerase. The PCR products were resolved by agarose electrophoresis, visualized by ethidium bromide straining and quantified by Image J®. The PCR cycling procedures and sequences of primers are listed below. PCR conditions: (1) UGT1A1: 94 °C, 30 s; 62 °C, 45 s; 72 °C, 30 s; 27 cycles; (2) MRP2: 94 °C, 30 s; 62 °C, 45 s; 72 °C, 30 s; 27 cycles; (3) CAR: 94 °C, 30 s; 59 °C, 45 s; 72 °C, 30 s; 35 cycles; (4) GADPH: 94 °C, 30 s; 62 °C, 45 s; 72 °C, 30 s; 27 cycles; (4) gtPBREM: 94 °C, 30 s; 63 °C, 30 s; 68 °C, 60 s; 30 cycles.

[5] = system: MRP2; assay: mRNA expression of MRP2 in Hep3B (RT-PCR); assay type: cell-based, human; details: 10 μM, 2, 4, 6, 8 and 10 h
Method: as §3, §4

[6] = system: methyl-PP2Ac; assay: PP2Ac methylation status in Hep3B (western blot); assay type: cell-based, human; details: Hep3B, 5, 10, 20 and 40 μM, 24 h
Method: Figure 5 The concentration-dependent study of PP2Ac methylation status under 6,7-diprenoxycoumarin (50) treatment. Hep3B cells (1 × 10^6) were treated with 50 (5, 10, 20 and 40 μM) for 24 h. Treated cell lysates were prepared as described in the Methods section and methyl-PP2Ac expression was analyzed by western blot.
as §1
Protein concentration of each sample was determined using a BCA Protein Assay Kit (Pirece®, Thermo Scientific). Different percentages of SDS-PAGE gels were prepared according to the molecular size of proteins of interest. […] The emitted fluorescence from the membrane was caught on a LAS-4000 biomolecule imager (FUJI.).

[7] = Figure 2, after scoparone or CITCO treatment

Row | Compound | suppression of PEPCK mRNA induction [1] | protein expression of UGT1A (CAR downstream gene) [2, 7] | protein expression of MRP2 (CAR downstream gene) [3, 7] | mRNA expression level of UGT1A1 [4] | mRNA expression level of MRP2 [5] | UGT1A1 protein level ([2]; Hep3B) | methyl-PP2Ac (active form of PP2Ac) [6] | protein expression level of MRP2 ([3]; Hep3B, 5, 10, 20 and 40 μM, 24 h)
1 | COc1cc2ccc(=O)oc2cc1OC [Compound 39, scoparone] | level similar to insulin | upregulated | upregulated |  |  |  |  | 
2 | CC(C)=CCOc1cc2ccc(=O)oc2cc1OCC=C(C)C [Compound 50, 6,7-diprenoxycoumarin] | less potent |  |  | enhanced | enhanced | not significantly increased | increased | enhanced
